In patent publication US12559506B2, “Indazole based compounds and associated methods of use” (Arvinas Operations, Inc., priority 2021, dated 2026):

What was measured:
G2019S LRRK2 = biological target: T1, G2019S LRRK2 (Homo sapiens, UniProt Q5S007, G2019S); assay: LRRK2 degradation assay, HiBit-tagged G2019S LRRK2 expressed from plasmid in HEK293 cells (Nano-Glo Dual-Luciferase); assay type: cell-based; settings: HiBit-tagged G2019S LRRK2 in HEK293 cells, 24 hours
T1 construct: expressed in transfected cells; host or cells: HEK293 (ATCC CRL-1573), transient transfection, mammalian expression vector with ubiquitin promoter
T1 sequence (Q5S007 whole entry G2019S): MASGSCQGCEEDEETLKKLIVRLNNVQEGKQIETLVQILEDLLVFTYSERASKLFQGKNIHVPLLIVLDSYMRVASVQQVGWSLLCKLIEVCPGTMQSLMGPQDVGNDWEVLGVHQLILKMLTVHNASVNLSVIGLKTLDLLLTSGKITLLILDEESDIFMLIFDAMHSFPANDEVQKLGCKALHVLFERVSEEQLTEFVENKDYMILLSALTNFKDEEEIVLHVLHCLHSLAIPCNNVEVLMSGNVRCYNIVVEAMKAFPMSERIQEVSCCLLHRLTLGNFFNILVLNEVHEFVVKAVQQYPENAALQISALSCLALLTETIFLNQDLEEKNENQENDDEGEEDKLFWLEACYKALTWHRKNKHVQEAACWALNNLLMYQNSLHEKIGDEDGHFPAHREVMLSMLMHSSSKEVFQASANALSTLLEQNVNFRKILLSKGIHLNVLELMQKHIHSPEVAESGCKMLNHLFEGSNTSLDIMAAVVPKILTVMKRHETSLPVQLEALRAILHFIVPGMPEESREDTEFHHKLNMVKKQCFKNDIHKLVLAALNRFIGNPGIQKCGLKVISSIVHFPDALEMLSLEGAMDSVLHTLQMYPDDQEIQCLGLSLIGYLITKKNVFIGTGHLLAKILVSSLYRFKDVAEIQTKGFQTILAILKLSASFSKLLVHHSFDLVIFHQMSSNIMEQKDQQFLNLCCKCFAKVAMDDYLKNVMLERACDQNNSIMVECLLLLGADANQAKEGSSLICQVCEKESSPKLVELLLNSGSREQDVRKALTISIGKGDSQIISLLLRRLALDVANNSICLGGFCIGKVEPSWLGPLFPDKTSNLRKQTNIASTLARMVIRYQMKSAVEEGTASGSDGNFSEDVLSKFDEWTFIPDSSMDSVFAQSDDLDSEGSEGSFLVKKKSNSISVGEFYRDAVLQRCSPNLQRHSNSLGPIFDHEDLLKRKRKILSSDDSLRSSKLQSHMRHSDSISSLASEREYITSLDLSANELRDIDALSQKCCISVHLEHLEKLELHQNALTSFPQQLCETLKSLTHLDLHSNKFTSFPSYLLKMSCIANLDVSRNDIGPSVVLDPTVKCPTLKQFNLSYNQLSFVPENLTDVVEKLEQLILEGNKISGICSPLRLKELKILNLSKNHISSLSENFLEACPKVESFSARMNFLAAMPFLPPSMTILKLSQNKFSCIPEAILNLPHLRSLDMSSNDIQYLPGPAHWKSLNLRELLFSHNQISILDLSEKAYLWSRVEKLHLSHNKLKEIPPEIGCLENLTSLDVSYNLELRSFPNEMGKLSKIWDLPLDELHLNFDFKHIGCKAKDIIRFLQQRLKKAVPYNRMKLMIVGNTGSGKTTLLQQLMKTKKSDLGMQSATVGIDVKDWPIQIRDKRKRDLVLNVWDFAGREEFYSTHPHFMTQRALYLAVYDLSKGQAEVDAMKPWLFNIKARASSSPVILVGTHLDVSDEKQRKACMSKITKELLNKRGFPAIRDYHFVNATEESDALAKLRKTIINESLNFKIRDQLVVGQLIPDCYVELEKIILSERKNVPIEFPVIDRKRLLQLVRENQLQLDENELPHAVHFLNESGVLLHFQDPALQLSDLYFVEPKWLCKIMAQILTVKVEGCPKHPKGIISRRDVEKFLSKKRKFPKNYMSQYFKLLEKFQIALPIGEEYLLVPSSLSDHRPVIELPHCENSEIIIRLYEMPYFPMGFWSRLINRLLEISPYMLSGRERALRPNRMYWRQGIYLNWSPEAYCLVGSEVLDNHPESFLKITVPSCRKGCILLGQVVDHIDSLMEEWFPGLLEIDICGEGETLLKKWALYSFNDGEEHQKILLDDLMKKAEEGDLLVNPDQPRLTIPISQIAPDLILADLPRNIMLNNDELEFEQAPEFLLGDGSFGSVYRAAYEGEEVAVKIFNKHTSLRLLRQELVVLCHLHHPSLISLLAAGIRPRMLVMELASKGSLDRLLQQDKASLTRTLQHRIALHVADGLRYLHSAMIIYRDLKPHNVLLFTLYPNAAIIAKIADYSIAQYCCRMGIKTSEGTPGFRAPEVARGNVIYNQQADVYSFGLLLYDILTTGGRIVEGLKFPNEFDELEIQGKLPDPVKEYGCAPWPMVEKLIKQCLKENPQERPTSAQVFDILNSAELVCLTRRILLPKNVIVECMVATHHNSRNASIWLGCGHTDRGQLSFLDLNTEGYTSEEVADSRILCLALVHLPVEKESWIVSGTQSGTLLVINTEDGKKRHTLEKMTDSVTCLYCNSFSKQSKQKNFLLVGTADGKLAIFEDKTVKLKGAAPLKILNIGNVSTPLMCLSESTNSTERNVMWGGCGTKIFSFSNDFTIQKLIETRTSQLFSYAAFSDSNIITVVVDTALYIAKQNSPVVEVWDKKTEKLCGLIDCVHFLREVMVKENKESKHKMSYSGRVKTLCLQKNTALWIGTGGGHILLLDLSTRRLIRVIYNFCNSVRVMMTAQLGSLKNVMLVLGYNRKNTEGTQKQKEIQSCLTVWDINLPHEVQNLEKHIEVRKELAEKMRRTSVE
Summary of the method: (§1)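 Degradation read as Nano-Glo HiBiT signal over firefly luciferase (cell number/viability) after 24 h compound exposure of transiently transfected HEK293 expressing C-terminally HiBiT-tagged wildtype or G2019S LRRK2. Data as % DMSO; DC50/Dmax fitted per plate, triplicate plates repeated twice.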

wildtype LRRK2 = biological target: T2, wildtype LRRK2 (Homo sapiens, UniProt Q5S007); assay: LRRK2 degradation assay, HiBit-tagged wildtype LRRK2 expressed from plasmid in HEK293 cells (Nano-Glo Dual-Luciferase); assay type: cell-based; settings: HiBit-tagged wildtype LRRK2 in HEK293 cells, 24 hours; for Dmax: read-out: **WT Dmax (%); for DC50: read-out: *WT DC50
T2 construct: expressed in transfected cells; host or cells: HEK293 (ATCC CRL-1573), transient transfection, mammalian expression vector with ubiquitin promoter
T2 sequence (Q5S007 whole entry): as the sequence (Q5S007 whole entry G2019S) above, with S2019G counted along it
Summary of the method: as §1

Compound	DC50 (G2019S LRRK2) [nM]	Dmax (G2019S LRRK2) [%]	Dmax (wildtype LRRK2) [%]	DC50 (wildtype LRRK2) [nM]
CC1(Oc2ccc3n[nH]c(-c4cc(N5CCN(CC6(F)CCN(C(=O)C7CCN(c8ccc9c(c8)C(=O)N(C8CCC(=O)NC8=O)C9=O)CC7)CC6)CC5)ncn4)c3c2)CC1 (stereo not drawn) [Compound 96, 2-(2,6-dioxo-3-piperidyl)-5-[4-[4-fluoro-4-[[4-[6-[5-(1-methylcyclopropoxy)-1H-indazol-3-yl]pyrimidin-4-yl]piperazin-1-yl]methyl]piperidine-1-carbonyl]-1-piperidyl]isoindoline-1,3-dione]	< 10	50 to 70	50 to 70	< 10
CC1(Oc2ccc3[nH]nc(-c4ccnc(N5CCN(CC6(F)CCN(C(=O)C7CCN(c8ccc9c(c8)C(=O)N(C8CCC(=O)NC8=O)C9=O)CC7)CC6)CC5)c4)c3c2)CC1 (stereo not drawn) [Compound 97, 2-(2,6-dioxo-3-piperidyl)-5-[4-[4-fluoro-4-[[4-[4-[5-(1-methylcyclopropoxy)-1H-indazol-3-yl]-2-pyridyl]piperazin-1-yl]methyl]piperidine-1-carbonyl]-1-piperidyl]isoindoline-1,3-dione]	< 10	< 50	50 to 70	< 10
CC1(Oc2ccc3[nH]nc(-c4cc(N5CCC(CN6CCN(CC7CCN(c8ccc9c(c8)C(=O)N(C8CCC(=O)NC8=O)C9=O)CC7)CC6)CC5)ccn4)c3c2)CC1 (stereo not drawn) [Compound 98, 2-(2,6-dioxo-3-piperidyl)-5-[4-[[4-[[1-[2-[5-(1-methylcyclopropoxy)-1H-indazol-3-yl]-4-pyridyl]-4-piperidyl]methyl]piperazin-1-yl]methyl]-1-piperidyl]isoindoline-1,3-dione]	≥ 100	–	–	≥ 100
CC1(Oc2ccc3[nH]nc(-c4cc(N5CCC(CN6CCN(CC7CCN(c8ccc9c(c8)C(=O)N(C8CCC(=O)NC8=O)C9=O)CC7)CC6)CC5)ncc4F)c3c2)CC1 (stereo not drawn) [Compound 99, 2-(2,6-dioxo-3-piperidyl)-5-[4-[[4-[[1-[5-fluoro-4-[5-(1-methylcyclopropoxy)-1H-indazol-3-yl]-2-pyridyl]-4-piperidyl]methyl]piperazin-1-yl]methyl]-1-piperidyl]isoindoline-1,3-dione]	50 to 100	< 50	< 50	50 to 100
CC1(Oc2ccc3[nH]nc(-c4ccnc(N5CCC(O[C@H]6CC[C@H](OC7CCN(c8ccc9c(c8)C(=O)N(C8CCC(=O)NC8=O)C9=O)CC7)CC6)CC5)c4)c3c2)CC1 (stereo partly drawn) [Compound 100, 2-(2,6-dioxopiperidin-3-yl)-5-(4-{[(1r,4r)-4-[(1-{4-[5-(1-methylcyclopropoxy)-1H-indazol-3-yl]pyridin-2-yl}piperidin-4-yl)oxy]cyclohexyl]oxy}piperidin-1-yl)-2,3-dihydro-1H-isoindole-1,3-dione]	10 to 50	50 to 70	< 50	10 to 50
CC1(Oc2ccc3[nH]nc(-c4cc(N5CCN(C[C@H]6CC[C@H](CN7CCN(c8ccc9c(c8)C(=O)N(C8CCC(=O)NC8=O)C9=O)CC7)CC6)CC5)ncn4)c3c2)CC1 (stereo partly drawn) [Compound 101, 2-(2,6-dioxo-3-piperidyl)-5-[4-[[4-[[4-[6-[5-(1-methylcyclopropoxy)-1H-indazol-3-yl]pyrimidin-4-yl]piperazin-1-yl]methyl]cyclohexyl]methyl]piperazin-1-yl]isoindoline-1,3-dione]	< 10	< 50	50 to 70	10 to 50
CC1(Oc2ccc3[nH]nc(-c4ccnc(N5CCN(C[C@H]6CC[C@H](CN7CCN(c8ccc9c(c8)C(=O)N(C8CCC(=O)NC8=O)C9=O)CC7)CC6)CC5)c4)c3c2)CC1 (stereo partly drawn) [Compound 102, 2-(2,6-dioxopiperidin-3-yl)-5-(4-{[(1r,4r)-4-[(4-{4-[5-(1-methylcyclopropoxy)-1H-indazol-3-yl]pyridin-2-yl}piperazin-1-yl)methyl]cyclohexyl]methyl}piperazin-1-yl)-2,3-dihydro-1H-isoindole-1,3-dione]	10 to 50	< 50	< 50	10 to 50
C[C@H]1CN(c2cc(-c3n[nH]c4cc(F)c(OC5(C)CC5)cc34)ncn2)CCN1CC1(F)CCN(CC2CCN(c3ccc4c(c3)C(=O)N(C3CCC(=O)NC3=O)C4=O)CC2)CC1 (stereo partly drawn) [Compound 106, 2-(2,6-dioxo-3-piperidyl)-5-[4-[[4-fluoro-4-[[(2S)-4-[6-[6-fluoro-5-(1-methylcyclopropoxy)-1H-indazol-3-yl]pyrimidin-4-yl]-2-methyl-piperazin-1-yl]methyl]-1-piperidyl]methyl]-1-piperidyl]isoindoline-1,3-dione]	< 10	< 50	< 50	< 10
CC1(Oc2ccc3[nH]nc(-c4cc(N5CCC(CN6CCN(CC7CCN(c8cc9c(cc8F)C(=O)N(C8CCC(=O)NC8=O)C9=O)CC7)CC6)CC5)ncn4)c3c2)CC1 (stereo not drawn) [Compound 107, 2-(2,6-dioxo-3-piperidyl)-5-fluoro-6-[4-[[4-[[1-[6-[5-(1-methylcyclopropoxy)-1H-indazol-3-yl]pyrimidin-4-yl]-4-piperidyl]methyl]piperazin-1-yl]methyl]-1-piperidyl]isoindoline-1,3-dione]	10 to 50	50 to 70	< 50	< 10
CC1(Oc2ccc3[nH]nc(-c4cc(N5CCC(O[C@H]6CC[C@H](OC7CCN(c8ccc9c(c8)C(=O)N(C8CCC(=O)NC8=O)C9=O)CC7)CC6)CC5)ncn4)c3c2)CC1 (stereo partly drawn) [Compound 108, 2-(2,6-dioxo-3-piperidyl)-5-[4-[4-[[1-[6-[5-(1-methylcyclopropoxy)-1H-indazol-3-yl]pyrimidin-4-yl]-4-piperidyl]oxy]cyclohexoxy]-1-piperidyl]isoindoline-1,3-dione]	10 to 50	< 50	50 to 70	10 to 50
C[C@H]1CN(c2cc(-c3[nH]nc4ccc(OC5(C)CC5)cc34)ncn2)CCN1CC1CCN(CC2CCN(c3ccc4c(c3)CN(C3CCC(=O)NC3=O)C4=O)CC2)CC1 (stereo partly drawn) [Compound 109, 3-[5-[4-[[4-[[(2S)-2-methyl-4-[6-[5-(1-methylcyclopropoxy)-2H-indazol-3-yl]pyrimidin-4-yl]piperazin-1-yl]methyl]-1-piperidyl]methyl]-1-piperidyl]-1-oxo-isoindolin-2-yl]piperidine-2,6-dione]	< 10	50 to 70	50 to 70	< 10
CC1(Oc2ccc3[nH]nc(-c4cc(N5CCN(CC6(F)CCN(CC7CCN(c8ccc9c(c8)CN(C8CCC(=O)NC8=O)C9=O)CC7)CC6)CC5)ncn4)c3c2)CC1 (stereo not drawn) [Compound 110, 3-[5-[4-[[4-fluoro-4-[[4-[6-[5-(1-methylcyclopropoxy)-1H-indazol-3-yl]pyrimidin-4-yl]piperazin-1-yl]methyl]-1-piperidyl]methyl]-1-piperidyl]-1-oxo-isoindolin-2-yl]piperidine-2,6-dione]	< 10	50 to 70	50 to 70	< 10
C[C@H]1CN(c2cc(-c3n[nH]c4ccc(OC5(C)CC5)cc34)ncn2)CCN1C[C@@H]1CCN(CC2CCN(c3ccc4c(c3)C(=O)N(C3CCC(=O)NC3=O)C4=O)CC2)C1 (stereo partly drawn) [Compound 113, 2-(2,6-dioxopiperidin-3-yl)-5-(4-{[(3R)-3-{[(2S)-2-methyl-4-{6-[5-(1-methylcyclopropoxy)-1H-indazol-3-yl]pyrimidin-4-yl}piperazin-1-yl]methyl}pyrrolidin-1-yl]methyl}piperidin-1-yl)-2,3-dihydro-1H-isoindole-1,3-dione]	< 10	< 50	50 to 70	< 10
CC1(Oc2ccc3[nH]nc(-c4cc(N5CCC(CN6CC[C@@H](CN7CCN(c8ccc9c(c8)C(=O)N(C8CCC(=O)NC8=O)C9=O)CC7)C6)CC5)ncn4)c3c2)CC1 (stereo partly drawn) [Compound 115, 2-(2,6-dioxopiperidin-3-yl)-5-(4-{[(3R)-1-[(1-{6-[5-(1-methylcyclopropoxy)-1H-indazol-3-yl]pyrimidin-4-yl}piperidin-4-yl)methyl]pyrrolidin-3-yl]methyl}piperazin-1-yl)-2,3-dihydro-1H-isoindole-1,3-dione]	< 10	50 to 70	50 to 70	< 10
CC1(Oc2ccc3[nH]nc(-c4cc(N5CCC(O[C@@H]6CCN(CC7CCN(c8ccc9c(c8)C(=O)N(C8CCC(=O)NC8=O)C9=O)CC7)C6)CC5)ncn4)c3c2)CC1 (stereo partly drawn) [Compound 116, 2-(2,6-dioxo-3-piperidyl)-5-[4-[[(3R)-3-[[1-[6-[5-(1-methylcyclopropoxy)-1H-indazol-3-yl]pyrimidin-4-yl]-4-piperidyl]oxy]pyrrolidin-1-yl]methyl]-1-piperidyl]isoindoline-1,3-dione]	< 10	< 50	50 to 70	< 10
CC1(Oc2ccc3[nH]nc(-c4cc(N5CCC(O[C@H]6CCN(CC7CCN(c8ccc9c(c8)C(=O)N(C8CCC(=O)NC8=O)C9=O)CC7)C6)CC5)ncn4)c3c2)CC1 (stereo partly drawn) [Compound 117, 2-(2,6-dioxopiperidin-3-yl)-5-(4-{[(3S)-3-[(1-{6-[5-(1-methylcyclopropoxy)-1H-indazol-3-yl]pyrimidin-4-yl}piperidin-4-yl)oxy]pyrrolidin-1-yl]methyl}piperidin-1-yl)-2,3-dihydro-1H-isoindole-1,3-dione]	< 10	< 50	< 50	< 10
CC1(Oc2ccc3[nH]nc(-c4cc(N5CCC(CN6CC[C@H](OC7CCN(c8ccc9c(c8)C(=O)N(C8CCC(=O)NC8=O)C9=O)CC7)C6)CC5)ncn4)c3c2)CC1 (stereo partly drawn) [Compound 118, 2-(2,6-dioxo-3-piperidyl)-5-[4-[(3S)-1-[[1-[6-[5-(1-methylcyclopropoxy)-1H-indazol-3-yl]pyrimidin-4-yl]-4-piperidyl]methyl]pyrrolidin-3-yl]oxy-1-piperidyl]isoindoline-1,3-dione]	10 to 50	< 50	50 to 70	10 to 50
